Data from US9687467B2, “Diagnosis and treatment of taxane-resistant cancers” (Children's Medical Center Corporation, priority 2011, dated 2017).

Columns and labels:
[1] = test system: APC 3′-UTR; experiment: Luciferase reporter fused to APC 3'-UTR; type: cell-based, human; conditions: 30 nM miR-135a mimic
Source text: FIGS. 3A-3E are a series of bar graphs showing that miR-135a modulates APC expression in paclitaxel-resistant cancer cells. MES-SA (FIG. 3A) or A549 (FIG. 3B) cells were transfected with a luciferase reporter construct fused to APC 3′-UTR or a control luciferase reporter vector with a random 3′-UTR (random UTR). Subsequently, cells were cotransfected with either an miR-135a mimic or a non-targeting miRNA control (control miRNA). Values are shown as the percent of luciferase expression compared with the control. *P<0.01 as determined by Wilcoxon's rank sum test. FIG. 3C: Endogenous APC mRNA expression was quantified by RT-PCR analysis in A549, A549^TR, MES-SA and MES-SA^DX5 cells. Bars represent mean and s.e.m. from duplicate experiments. NS: not significant, **P<0.001 as determined by Wilcoxon's rank sum test. In addition, APC protein expression was examined by western blotting (bottom panel). […]
Double-stranded RNA oligos representing a mature sequence that mimics endogenous miR-135a, anti-miR-135a designed to inhibit endogenous miR-135a, and anti-miR negative control were all obtained from Ambion™ and were transfected into cell lines at ˜50% confluence at 30 nM concentration with siLentFect (Bio-Rad™). […] The next day, luciferase activity was measured using the Dual-Glo® Luciferase assay system (Promega™, Madison, Wis.). […]

[2] = test system: MES-SA cells; experiment: MTT cell viability assay, paclitaxel response; type: cell-based, human; conditions: after transfection with miR-135a mimic, 100 nM paclitaxel
Description: (§1) The paclitaxel-resistant cell lines MES-SA^DX5 and A549^TR were transfected with a scrambled non-targeting miRNA (control) and an miR-135a mimic (mimic), respectively. Cells were subsequently treated with 100 nM paclitaxel and cell viability was assessed using the MTT assay (FIGS. 2A, 2B). The percentage of apoptotic cells was assessed by Annexin V-staining and FACS analysis (FIGS. 2C, 2D). Values are presented as percent cell survival in paclitaxel-treated cells relative to untreated cells. *P<0.05, **P<0.001 as determined by Wilcoxon's rank sum test.
FIGS. 4A-4E are a series of micrographs and line graphs showing that miR-135a-mediated APC suppression contributes to paclitaxel resistance. MES-SA and A549 cells were mock-transfected (mock), transfected with a scrambled siRNA (siControl) or with siRNA directed against APC (siAPC). […] Transfected A549 (FIG. 4B) and MES-SA (FIG. 4C) cells were treated with paclitaxel and viability was assessed using the MTT assay. […] (FIG. 4E) Both A549-shCON and -shAPC cells were treated with paclitaxel and cell viability was measured using the MTT assay. […]
(§2) Cell growth inhibition was determined by a 3-(4,5-dimethylthiazol-2-yl)-2,5-diphenyltetrazolium (MTT) bromide assay. […] Absorbance was determined using a 96-well SpectraMax plate reader (Molecular Devices, Sunnyvale, Calif.) at 560 nm and 650 nm (background). […]

[3] = test system: A549 cells; experiment: Annexin V staining and FACS analysis of paclitaxel-induced apoptosis; type: cell-based, human; conditions: transfection with miR-135a mimic, 100 nM paclitaxel; P<0.001
Description: as §1
Annexin V/7-amino-actinomycin D labeling was performed according to the manufacturer's instructions (BD Pharmingen™, San Diego, Calif., USA, 559 763) and samples were analyzed by flow cytometry. Briefly, cells were treated for 48-72 h with either vehicle or 100 nM paclitaxel. Cells were trypsinized and washed with phosphate-buffered saline before resuspending in assay binding buffer. Annexin V and 7-amino-actinomycin labeling was performed at room temperature for 15 min before analysis by flow cytometry (BD FACScan™, San Jose, Calif., USA).

[4] = test system: T824.1 cell line; experiment: MTT cell viability assay on in vivo established paclitaxel-sensitive cell line; type: cell-based; conditions: paclitaxel-sensitive cells transfected with miR-135a mimic
Description: (FIG. 7A). The parental A549 cells, a cell line that became refractory during in vivo treatment with paclitaxel (T20.2 round 1) and the same cell line established after yet another round of in vivo paclitaxel treatment (T20.2 reinjection) were treated with paclitaxel and cell viability was assessed using the MTT assay. Represented are average LC50±s.e.m. determined by MTT assay for parental A549 cells (white boxes), **P<0.001, *P<0.05 as determined by Wilcoxon's rank sum test for T20.2 round 1 cells (hatched boxes) and for T20.2 re-injection cells (filled boxes). (FIG. 7B) The expression of miR-135a was examined in these cells by qRT-PCR. *P<0.05 as determined by Wilcoxon's rank sum test. (FIG. 7C) The expression of miR-135a was examined in the cell lines established in vivo. The correlation between paclitaxel response and miR-135a expression was calculated using the Spearman's rank test. […] Subsequently, cells were treated with the indicated concentrations of paclitaxel and cell viability was assessed using the MTT assay. […]
as §2

For “miR-135a mimic: double-stranded RNA oligos representing a mature sequence that mimics endogenous miR-135a, from Ambion (sense GTATTGGGCGCCTGGTCACC; antisense CGGGAAGATGGTGATGG; listed as DNA, chemistry not given here)”, the “targeting of APC 3' untranslated region (luciferase expression)” value ([1]; A549 cells) was “targeted the 3′ untranslated region of APC”, the “targeting of APC 3' untranslated region (luciferase expression)” value ([1]; MES-SA cells, P=0.029) was “targeted the 3′ untranslated region of APC” and the cell survival [2] was 43.6%. The “paclitaxel-induced apoptosis (annexin-positive cells)” value [3] was “decreased paclitaxel-induced apoptosis” and the paclitaxel-induced cytotoxicity [4] was “suppressed paclitaxel-induced cytotoxicity”.
